Data reported in patent US20090233795A1, “Fungicidal Mixtres Based On 3-Monosubstituted N-Bipenyl-Pyrazolecarboxamides” (BASF Akitengesellschaft, priority 2005, published 2009).
Read-outs that look alike come from different tables or passages of the source.

Tests used:
[1] = test system: Pyrenophora teres; assay: Activity against net blotch of barley, 1 day protective application; type: in vivo, Pyrenophora [syn. Drechslera] teres; conditions: sprayed 24 hours before inoculation, rated after 6 days
[2] = test system: Botrytis cinerea; assay: Activity against gray mold on bell pepper leaves, 1 day protective application; type: in vivo; conditions: sprayed 1 day before inoculation, rated after 5 days
[3] = test system: Puccinia recondita; assay: Curative activity against brown rust of wheat; type: in vivo; conditions: sprayed the day after inoculation, 7 days
[4] = test system: Erysiphe [syn. Blumeria] graminis forma specialis. tritici; assay: Activity against mildew of wheat; type: in vivo; conditions: 1 mg/l, sprayed 24 hours before inoculation, rated after 7 days
[5] = test system: Pyricularia oryzae; type: cell-based; conditions: microtiter plate, 405 nm, day 7
[6] = test system: Puccinia recondita; assay: Protective activity against brown rust of wheat; type: in vivo; conditions: 16 mg/l, sprayed the day before inoculation
[7] = test system: Septoria tritici; assay: Activity against the speckled leaf blotch pathogen in the microtiter test; type: cell-based; conditions: microtiter plate, 405 nm, day 7

## Fc1ccc([C@]2(Cn3cncn3)O[C@H]2c2ccccc2Cl)cc1 (racemic) [epoxiconazole, (2RS,3SR)-1-[3-(2-chlorophenyl)-2,3-epoxy-2-(4-fluorophenyl)propyl]-1H-1,2,4-triazole]
[1]; 1 mg/l
  Observed activity (% infection): 0%

## CC1CCN(c2c(-c3c(F)cc(F)cc3F)c(Cl)nc3ncnn23)CC1 [5-chloro-7-(4-methylpiperidin-1-yl)-6-(2,4,6-trifluorophenyl)-[1,2,4]triazolo[1,5-a]pyrimidine, reference compound]
[2]; 4 mg/l
  Observed activity (% infection): 40%
[3]; 1 mg/l
  Observed activity (% infection): 0%

## Cn1cc(C(=O)Nc2ccccc2-c2cccc(Cl)c2)c(C(F)(F)F)n1 [No. I.1, N-(3′-chlorobiphenyl-2-yl)-1-methyl-3-trifluoromethyl-1H-pyrazole-4-carboxamide]
[2]; 1 mg/l
  Observed activity (% infection): 0%
[1]; 4 mg/l
  Observed activity (% infection): 26%
[4]
  Observed activity (% infection): 0%
[5]; 4 mg/l
  Observed activity (% infection): 0%
other
  melting point: 92 to 94 °C

## Cn1cc(C(=O)Nc2ccccc2-c2cccc(C(F)(F)F)c2)c(C(F)(F)F)n1 [No. I.4, N-(3′-trifluoromethylbiphenyl-2-yl)-1-methyl-3-trifluoromethyl-1H-pyrazole-4-carboxamide]
[6]
  Observed activity (% infection): 0%
[7]; 0.25 mg/l
  Observed activity (% infection): 20%
other
  melting point: 132 to 134 °C

## Cn1cc(C(=O)Nc2ccccc2-c2cccc(C#N)c2)c(C(F)(F)F)n1 [No. I.5, 1-methyl-3-trifluoromethyl-N-(ortho-(3-cyanophenyl)phenyl)pyrazole-4-carboxamide]
other
  melting point: 76 to 78 °C

## Cn1cc(C(=O)Nc2ccccc2-c2cccc(C(F)(F)F)c2)c(C(F)F)n1 [No. I.9, N-(3′-trifluoromethylbiphenyl-2-yl)-1-methyl-3-difluoromethyl-1H-pyrazole-4-carboxamide]
[3]; 0.25 mg/l
  Observed activity (% infection): 11%
[4]
  Observed activity (% infection): 0%
other
  melting point: 124 to 125 °C

## Cc1nn(C)cc1C(=O)Nc1ccccc1-c1cccc(Cl)c1 [No. I.10, N-(3′-chlorobiphenyl-2-yl)-1,3-dimethyl-1H-pyrazole-4-carboxamide]
other
  melting point: 104 to 106 °C

## Cn1cc(C(=O)Nc2ccccc2-c2cccc(Cl)c2)c(CF)n1 [No. I.11, N-(3′-chlorobiphenyl-2-yl)-1-methyl-3-fluoromethyl-1H-pyrazole-4-carboxamide]
other
  melting point: 96 to 99 °C

## Cn1cc(C(=O)Nc2ccccc2-c2cccc(Cl)c2)c(C(F)F)n1 [No. I.12, N-(3′-chlorobiphenyl-2-yl)-1-methyl-3-difluoromethyl-1H-pyrazole-4-carboxamide]
other
  melting point: 110 to 112 °C

## Cn1cc(C(=O)Nc2ccccc2-c2cccc(F)c2)c(CF)n1 [No. I.13, N-(3′-fluorobiphenyl-2-yl)-1-methyl-3-fluoromethyl-1H-pyrazole-4-carboxamide]
other
  melting point: 138 to 141 °C

## Cn1cc(C(=O)Nc2ccccc2-c2cccc(F)c2)c(C(F)F)n1 [No. I.14, N-(3′-fluorobiphenyl-2-yl)-1-methyl-3-difluoromethyl-1H-pyrazole-4-carboxamide]
other
  melting point: 130 to 135 °C

## Cc1nn(C)c(F)c1C(=O)Nc1ccccc1-c1cccc(C#N)c1 [No. I.15, N-(3′-cyanobiphenyl-2-yl)-1,3-dimethyl-5-fluoro-1H-pyrazole-4-carboxamide]
other
  melting point: 137 to 138 °C

## Cc1nn(C)c(F)c1C(=O)Nc1ccccc1-c1cccc([N+](=O)[O-])c1 [No. I.16, N-(3′-nitrobiphenyl-2-yl)-1,3-dimethyl-5-fluoro-1H-pyrazole-4-carboxamide]
other
  melting point: 137 to 139 °C

## Cc1nn(C)c(F)c1C(=O)Nc1ccccc1-c1cccc(C(F)(F)F)c1 [No. I.17, N-(3′-trifluoromethylbiphenyl-2-yl)-1,3-dimethyl-5-fluoro-1H-pyrazole-4-carboxamide]
other
  melting point: 113 to 114 °C

## COc1ccc(C(=CC(=O)N2CCOCC2)c2ccc(Cl)cc2)cc1OC [dimethomorph, 3-(4-chlorophenyl)-3-(3,4-dimethoxyphenyl)-1-morpholin-4-yl-propenone]
[1]; 16 mg/l
  Observed activity (% infection): 0%
[3]; 1 mg/l
  Observed activity (% infection): 0%

## COc1cc(C)c(C(=O)c2c(OC)ccc(Br)c2C)c(OC)c1OC [metrafenone, 3′-bromo-2,3,4,6′-tetramethoxy-2′,6-dimethylbenzophenone]
[1]; 16 mg/l
  Observed activity (% infection): 0%
[3]; 1 mg/l
  Observed activity (% infection): 0%

## COC(=O)N(OC)c1ccccc1COc1ccn(-c2ccc(Cl)cc2)n1 [pyraclostrobin, methyl N-{2-[1-(4-chlorophenyl)-1H-pyrazol-3-yloxymethyl]phenyl}(N-methoxy)carbamate, reference compound]
[4]
  Observed activity (% infection): 40%

## CC1(C)CC/C(=C\c2ccc(Cl)cc2)C1(O)Cn1cncn1 (stereo not shown) [triticonazole, (5E)-5-[(4-chlorophenyl)methylene]-2,2-dimethyl-1-(1H-1,2,4-triazol-1-ylmethyl)cyclopentanol, reference compound]
[4]
  Observed activity (% infection): 40%

## zinc ammoniate ethylenebis(dithiocarbamate) [metiram, reference compound]
[7]; 1 mg/l
  Observed activity (% infection): 1%
[5]; 16 mg/l
  Observed activity (% infection): 52%
